Measured values from patent US11926602B1, “4-amino-5-(4-fluoro-3-phenoxyphenyl)-4H-1,2,4-triazole-3-thiol derivatives as antifungal agents” (KING FAISAL UNIVERSITY, priority 2023, dated 2024).
Converted amounts (≈) assume the structure as drawn.

Key:
[1] = tested on: Candida parapsilosis (ATCC RCMB 05064); assay: Antifungal microdilution assay, MIC against Candida parapsilosis; format: cell-based; conditions: Lodderomyces parapsilosis, RCMB05064, 0.49-125 μg/mL tested over 48 h, read-out: Minimum inhibitory concentration C. parapsilosis
Description: (§1) The calculation of the minimum inhibitory concentrations (MICs) for the tested compounds was done against Candida parapsilosis (ATCC RCMB 05064); Candida albicans (ATCC RCMB 05064): Candida tropicalis (ATCC RCMB 05064); Aspergillus niger (ATCC RCMB 05064); Trichophyton rubrum (ATCC RCMB 05064). Microdilution assay was used to evaluate the tested compounds (2, 2a-2h) for their antifungal activity (Anaissie, E. J.; Paetznick, V. L.; Ensign, L. G.; Espinel-Ingroff, A.; Galgiani, J. N.; Hitchcock, C. A.; LaRocco. M.; Patterson. T.; Pfaller, M. A.; Rex, J. H.; et al. Microdilution antifungal susceptibility testing of Candida albicans and Cryptococcus neoformans with and without agitation: An eight-center collaborative study. Antimicrob. Agents Chemother. 1996, 40, 2387-2391). Different concentrations were tested from each compound; 0.49, 0.98, 1.95, 3.9, 7.81, 15.63, 31.25, 62.5, and 125 μg/mL over 48 h.
(§2) The observed antifungal activity of the present 4-amino-5-(4-fluoro-3-phenoxyphenyl)-4H-1,2,4-triazole-3-thiol (2) and its derivatives (2a-h) against various fungi are summarized below in Table 2.

[2] = tested on: Candida albicans (ATCC RCMB 05064); assay: Antifungal microdilution assay, MIC against Candida albicans; format: cell-based; conditions: RCMB05064, 0.49-125 μg/mL tested over 48 h, read-out: Minimum inhibitory concentration C. albicans
Description: as §1, §2

[3] = tested on: Candida tropicalis (ATCC RCMB 05064); assay: Antifungal microdilution assay, MIC against Candida tropicalis; format: cell-based; conditions: RCMB05064, 0.49-125 μg/mL tested over 48 h, read-out: Minimum inhibitory concentration C. tropicalis
Description: as §1, §2

[4] = tested on: Aspergillus niger (ATCC RCMB 05064); assay: Antifungal microdilution assay, MIC against Aspergillus niger; format: cell-based; conditions: RCMB05064, 0.49-125 μg/mL tested over 48 h, read-out: Minimum inhibitory concentration A. niger
Description: as §1, §2

[5] = tested on: Trichophyton rubrum (ATCC RCMB 05064); assay: Antifungal microdilution assay, MIC against Trichophyton rubrum; format: cell-based; conditions: RCMB05064, 0.49-125 μg/mL tested over 48 h, read-out: Minimum inhibitory concentration T. rubrum
Description: as §1, §2

Compound	MIC [1] [µg/mL]	MIC [2] [µg/mL]	MIC [3] [µg/mL]	MIC [4] [µg/mL]	MIC [5] [µg/mL]	melting point [°C]
Nn1c(S)nnc1-c1ccc(F)c(Oc2ccccc2)c1 [Compound 2, 4-amino-5-(4-fluoro-3-phenoxyphenyl)-4H-1,2,4-triazole-3-thiol]	1.95 (≈ 6.45 µM)	3.9 (≈ 12.9 µM)	3.9 (≈ 12.9 µM)	7.81 (≈ 25.8 µM)	3.9 (≈ 12.9 µM)	205 to 207
Fc1ccc(-c2n[nH]c(=S)n2/N=C/c2ccccc2)cc1Oc1ccccc1 [Compound 2a]	0.98 (≈ 2.51 µM)	1.95 (≈ 4.99 µM)	0.98 (≈ 2.51 µM)	1.95 (≈ 4.99 µM)	1.95 (≈ 4.99 µM)	189
Fc1ccc(-c2n[nH]c(=S)n2/N=C/c2ccc(Cl)cc2)cc1Oc1ccccc1 [Compound 2b]	15.6 (≈ 36.8 µM)	31.2 (≈ 73.5 µM)	62.5 (≈ 147 µM)	31.2 (≈ 73.5 µM)	62.5 (≈ 147 µM)	174
Fc1ccc(-c2nn(CN3CCOCC3)c(=S)n2/N=C/c2ccc(Cl)cc2)cc1Oc1ccccc1 [Compound 2c]	15.6 (≈ 29.8 µM)	15.6 (≈ 29.8 µM)	32.2 (≈ 61.5 µM)	15.6 (≈ 29.8 µM)	32.2 (≈ 61.5 µM)	146
Fc1ccc(/C=N/n2c(-c3ccc(F)c(Oc4ccccc4)c3)n[nH]c2=S)cc1 [Compound 2d]	7.81 (≈ 19.1 µM)	7.81 (≈ 19.1 µM)	15.6 (≈ 38.3 µM)	7.81 (≈ 19.1 µM)	15.6 (≈ 38.3 µM)	172
Fc1ccc(-c2n[nH]c(=S)n2/N=C/c2cccc(Oc3ccccc3)c2)cc1Oc1ccccc1 [Compound 2e]	1.95 (≈ 4.04 µM)	1.95 (≈ 4.04 µM)	1.95 (≈ 4.04 µM)	3.9 (≈ 8.08 µM)	7.81 (≈ 16.2 µM)	132
CSc1nnc(-c2ccc(F)c(Oc3ccccc3)c2)n1N [Compound 2f, 3-(4-Fluoro-3-phenoxyphenyl)-5-(methylthio)-4H-1,2,4-triazol-4-amine]	3.9 (≈ 12.3 µM)	7.81 (≈ 24.7 µM)	7.81 (≈ 24.7 µM)	3.9 (≈ 12.3 µM)	7.81 (≈ 24.7 µM)	152
Nn1c(SCc2cnc(Cl)s2)nnc1-c1ccc(F)c(Oc2ccccc2)c1 [Compound 2g, 3-(((2-Chlorothiazol-5-yl)methyl)thio)-5-(4-fluoro-3-phenoxyphenyl)-4H-1,2,4-triazol-4-amine]	0.49 (≈ 1.13 µM)	0.49 (≈ 1.13 µM)	0.49 (≈ 1.13 µM)	0.98 (≈ 2.26 µM)	0.98 (≈ 2.26 µM)	136
C=CCSc1nnc(-c2ccc(F)c(Oc3ccccc3)c2)n1N [Compound 2h, 3-(Allylthio)-5-(4-fluoro-3-phenoxyphenyl)-4H-1,2,4-triazol-4-amine]	0.49 (≈ 1.43 µM)	0.98 (≈ 2.86 µM)	0.49 (≈ 1.43 µM)	0.98 (≈ 2.86 µM)	1.95 (≈ 5.7 µM)	128
OC(Cn1cncn1)(Cn1cncn1)c1ccc(F)cc1F [Fluconazole, reference compound]	0.49 (≈ 1.6 µM)	0.49 (≈ 1.6 µM)	0.98 (≈ 3.2 µM)	0.49 (≈ 1.6 µM)	1.95 (≈ 6.37 µM)	–
